Data reported in PubChem BioAssay (NCI).
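48-hour exposure; five concentrations; linearly interpolated endpoints. GI50: concentration for 50% inhibition of growth. Definition used: TGI = concentration required for complete inhibition of growth.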

Experiments:
Assay in all cases: DTP human tumour cell line panel, 48 h; in the data active means GI50 below about 0.43 µM; inactive means the rest
MDA-N = system: MDA-N
DU-145 prostate = system: DU-145 prostate
HOP-92 NSCLC = system: HOP-92 NSCLC
PC-3 prostate = system: PC-3 prostate
SNB-75 CNS = system: SNB-75 CNS
UO-31 renal = system: UO-31 renal
SF-268 CNS = system: SF-268 CNS
HCT-116 colon = system: HCT-116 colon
SK-MEL-2 melanoma = system: SK-MEL-2 melanoma
A498 renal = system: A498 renal
786-0 renal = system: 786-0 renal
HOP-62 NSCLC = system: HOP-62 NSCLC
HS 578T breast = system: HS 578T breast
OVCAR-5 ovarian = system: OVCAR-5 ovarian
OVCAR-8 ovarian = system: OVCAR-8 ovarian
A549 NSCLC = system: A549 NSCLC
BT-549 breast = system: BT-549 breast
HCT-15 colon = system: HCT-15 colon
CAKI-1 renal = system: CAKI-1 renal
NCI-H23 lung = system: NCI-H23 lung
SF-295 CNS = system: SF-295 CNS
SK-OV-3 ovarian = system: SK-OV-3 ovarian
M14 melanoma = system: M14 melanoma
EKVX NSCLC = system: EKVX NSCLC
MALME-3M melanoma = system: MALME-3M melanoma
K-562 leukemia = system: K-562 leukemia
NCI/ADR-RES ovarian = system: NCI/ADR-RES ovarian
MDA-MB-231 breast = system: MDA-MB-231 breast
NCI-H460 lung = system: NCI-H460 lung
IGROV1 ovarian = system: IGROV1 ovarian
UACC-257 melanoma = system: UACC-257 melanoma
OVCAR-3 ovarian = system: OVCAR-3 ovarian
MDA-MB-435 = system: MDA-MB-435
SK-MEL-5 melanoma = system: SK-MEL-5 melanoma
MCF7 breast = system: MCF7 breast
OVCAR-4 ovarian = system: OVCAR-4 ovarian
TK-10 renal = system: TK-10 renal
RXF 393 renal = system: RXF 393 renal
UACC-62 melanoma = system: UACC-62 melanoma
HCC-2998 colon = system: HCC-2998 colon
SK-MEL-28 melanoma = system: SK-MEL-28 melanoma
ACHN renal = system: ACHN renal
U251 CNS = system: U251 CNS
NCI-H522 lung = system: NCI-H522 lung
MOLT-4 leukemia = system: MOLT-4 leukemia
RPMI-8226 leukemia = system: RPMI-8226 leukemia
SNB-19 CNS = system: SNB-19 CNS
KM12 colon = system: KM12 colon
HT29 colon = system: HT29 colon
COLO 205 colon = system: COLO 205 colon
NCI-H226 lung = system: NCI-H226 lung
SN12C renal = system: SN12C renal
SR leukemia = system: SR leukemia
LOX IMVI melanoma = system: LOX IMVI melanoma
SF-539 CNS = system: SF-539 CNS
HL-60(TB) leukemia = system: HL-60(TB) leukemia
SW-620 colon = system: SW-620 colon
T-47D breast = system: T-47D breast
CCRF-CEM leukemia = system: CCRF-CEM leukemia

C/C(=C\c1ccccn1)c1ccccn1
> 100 µM: TGI (MDA-N) | TGI (DU-145 prostate) | TGI (HOP-92 NSCLC) | TGI (PC-3 prostate) | TGI (SNB-75 CNS) | TGI (UO-31 renal) | TGI (SF-268 CNS) | TGI (HCT-116 colon) | TGI (SK-MEL-2 melanoma) | TGI (A498 renal) | TGI (786-0 renal) | TGI (HOP-62 NSCLC) | TGI (HS 578T breast) | TGI (OVCAR-5 ovarian) | TGI (OVCAR-8 ovarian) | TGI (A549 NSCLC) | TGI (BT-549 breast) | TGI (HCT-15 colon) | TGI (CAKI-1 renal) | TGI (NCI-H23 lung) | TGI (SF-295 CNS) | TGI (SK-OV-3 ovarian) | TGI (EKVX NSCLC) | TGI (MALME-3M melanoma) | TGI (K-562 leukemia) | TGI (NCI/ADR-RES ovarian) | TGI (MDA-MB-231 breast) | TGI (NCI-H460 lung) | TGI (IGROV1 ovarian) | TGI (UACC-257 melanoma) | TGI (OVCAR-3 ovarian) | TGI (MDA-MB-435) | TGI (SK-MEL-5 melanoma) | TGI (MCF7 breast) | TGI (OVCAR-4 ovarian) | TGI (TK-10 renal) | TGI (RXF 393 renal) | TGI (UACC-62 melanoma) | TGI (HCC-2998 colon) | TGI (SK-MEL-28 melanoma) | TGI (ACHN renal) | TGI (U251 CNS) | TGI (NCI-H522 lung) | TGI (MOLT-4 leukemia) | TGI (RPMI-8226 leukemia) | TGI (SNB-19 CNS) | TGI (KM12 colon) | TGI (HT29 colon) | TGI (COLO 205 colon)
> 100000 nM: TGI (M14 melanoma)

Cc1ccc(/C(=N\N=C(N)N)c2ccccc2)cc1
14.3 µM: TGI (HOP-62 NSCLC) | TGI (OVCAR-8 ovarian)
11.5 µM: TGI (HCT-15 colon) | TGI (U251 CNS)
19.1 µM: TGI (SW-620 colon)
4.51 µM: TGI (NCI/ADR-RES ovarian)
28.2 µM: TGI (UACC-257 melanoma)
0.631 µM: TGI (MDA-MB-435)
20.1 µM: TGI (CAKI-1 renal)
10.2 µM: TGI (MCF7 breast)
1.73 µM: TGI (SK-MEL-5 melanoma)
18.7 µM: TGI (PC-3 prostate)
3.67 µM: TGI (HS 578T breast)
7.62 µM: TGI (BT-549 breast)
17.1 µM: TGI (UO-31 renal)
18.6 µM: TGI (OVCAR-4 ovarian)
3.19 µM: TGI (NCI-H460 lung)
1.02 µM: TGI (A498 renal)
5.05 µM: TGI (KM12 colon)
9.98 µM: TGI (NCI-H23 lung)
26 µM: TGI (EKVX NSCLC)
0.677 µM: TGI (HCC-2998 colon)
15.4 µM: TGI (SK-MEL-28 melanoma)
5.73 µM: TGI (HT29 colon)
11.3 µM: TGI (HCT-116 colon)
> 36.2 µM: TGI (HL-60(TB) leukemia)
10.4 µM: TGI (DU-145 prostate) | TGI (SK-OV-3 ovarian)
4.94 µM: TGI (SNB-75 CNS)
3.15 µM: TGI (SF-295 CNS)
13.1 µM: TGI (SNB-19 CNS)
14.8 µM: TGI (ACHN renal)
0.597 µM: TGI (OVCAR-3 ovarian)
13.4 µM: TGI (SN12C renal)
15.1 µM: TGI (TK-10 renal)
28.7 µM: TGI (SK-MEL-2 melanoma)
10.1 µM: TGI (NCI-H226 lung)
925 nM: TGI (SF-539 CNS)
2.9 µM: TGI (RXF 393 renal)
20.2 µM: TGI (HOP-92 NSCLC)
18.3 µM: TGI (OVCAR-5 ovarian)
977 nM: TGI (M14 melanoma)
> 100 µM: TGI (K-562 leukemia) | TGI (CCRF-CEM leukemia)
13.3 µM: TGI (NCI-H522 lung)
12.1 µM: TGI (786-0 renal)
31.4 µM: TGI (IGROV1 ovarian)
42.7 µM: TGI (RPMI-8226 leukemia)
12.5 µM: TGI (LOX IMVI melanoma)
15.8 µM: TGI (UACC-62 melanoma)
3.93 µM: TGI (MDA-MB-231 breast)
17.3 µM: TGI (SF-268 CNS) | TGI (A549 NSCLC) | TGI (MALME-3M melanoma)
24.6 µM: TGI (T-47D breast)
0.714 µM: TGI (COLO 205 colon)
> 92.3 µM: TGI (MOLT-4 leukemia)
inactive: GI50 (HOP-92 NSCLC) 1680 nM | GI50 (NCI-H226 lung) 726 nM | GI50 (UO-31 renal) 1120 nM | GI50 (SF-268 CNS) 868 nM | GI50 (SK-MEL-2 melanoma) 5.02 µM | GI50 (786-0 renal) 594 nM | GI50 (HOP-62 NSCLC) 672 nM | GI50 (OVCAR-5 ovarian) 830 nM | GI50 (SN12C renal) 587 nM | GI50 (OVCAR-8 ovarian) 521 nM | GI50 (A549 NSCLC) 433 nM | GI50 (BT-549 breast) 744 nM | GI50 (CAKI-1 renal) 843 nM | GI50 (NCI-H23 lung) 597 nM | GI50 (SR leukemia) 1830 nM | GI50 (EKVX NSCLC) 998 nM | GI50 (NCI/ADR-RES ovarian) 1090 nM | GI50 (IGROV1 ovarian) 459 nM | GI50 (UACC-257 melanoma) 11.7 µM | GI50 (OVCAR-4 ovarian) 791 nM | GI50 (TK-10 renal) 549 nM | GI50 (LOX IMVI melanoma) 611 nM | GI50 (UACC-62 melanoma) 438 nM | GI50 (SK-MEL-28 melanoma) 535 nM | GI50 (ACHN renal) 777 nM | GI50 (MOLT-4 leukemia) 796 nM | GI50 (RPMI-8226 leukemia) 692 nM | GI50 (CCRF-CEM leukemia) 689 nM | GI50 (SNB-19 CNS) 455 nM
24.8 µM: TGI (SR leukemia)
active: GI50 (DU-145 prostate) 410 nM | GI50 (PC-3 prostate) 406 nM | GI50 (SNB-75 CNS) 288 nM | GI50 (HCT-116 colon) 342 nM | GI50 (A498 renal) 272 nM | GI50 (HS 578T breast) 349 nM | GI50 (HCT-15 colon) 371 nM | GI50 (SF-295 CNS) 306 nM | GI50 (SK-OV-3 ovarian) 420 nM | GI50 (M14 melanoma) 285 nM | GI50 (MALME-3M melanoma) 391 nM | GI50 (K-562 leukemia) 339 nM | GI50 (MDA-MB-231 breast) 394 nM | GI50 (NCI-H460 lung) 330 nM | GI50 (OVCAR-3 ovarian) 228 nM | GI50 (MDA-MB-435) 203 nM | GI50 (SK-MEL-5 melanoma) 353 nM | GI50 (MCF7 breast) 292 nM | GI50 (RXF 393 renal) 296 nM | GI50 (SF-539 CNS) 265 nM | GI50 (HCC-2998 colon) 241 nM | GI50 (HL-60(TB) leukemia) 318 nM | GI50 (U251 CNS) 365 nM | GI50 (NCI-H522 lung) 372 nM | GI50 (SW-620 colon) 418 nM | GI50 (T-47D breast) 421 nM | GI50 (KM12 colon) 367 nM | GI50 (HT29 colon) 344 nM | GI50 (COLO 205 colon) 282 nM

Cn1nc2n(c1=O)CCCN2
> 100 µM: TGI (MDA-N) | TGI (DU-145 prostate) | TGI (HOP-92 NSCLC) | TGI (PC-3 prostate) | TGI (NCI-H226 lung) | TGI (SNB-75 CNS) | TGI (SF-268 CNS) | TGI (HCT-116 colon) | TGI (A498 renal) | TGI (786-0 renal) | TGI (HOP-62 NSCLC) | TGI (HS 578T breast) | TGI (OVCAR-5 ovarian) | TGI (SN12C renal) | TGI (OVCAR-8 ovarian) | TGI (A549 NSCLC) | TGI (HCT-15 colon) | TGI (NCI-H23 lung) | TGI (SR leukemia) | TGI (SF-295 CNS) | TGI (EKVX NSCLC) | TGI (MALME-3M melanoma) | TGI (K-562 leukemia) | TGI (NCI/ADR-RES ovarian) | TGI (MDA-MB-231 breast) | TGI (NCI-H460 lung) | TGI (IGROV1 ovarian) | TGI (UACC-257 melanoma) | TGI (OVCAR-3 ovarian) | TGI (MDA-MB-435) | TGI (SK-MEL-5 melanoma) | TGI (OVCAR-4 ovarian) | TGI (TK-10 renal) | TGI (LOX IMVI melanoma) | TGI (RXF 393 renal) | TGI (HCC-2998 colon) | TGI (SK-MEL-28 melanoma) | TGI (ACHN renal) | TGI (HL-60(TB) leukemia) | TGI (U251 CNS) | TGI (NCI-H522 lung) | TGI (SW-620 colon) | TGI (RPMI-8226 leukemia) | TGI (CCRF-CEM leukemia) | TGI (SNB-19 CNS) | TGI (KM12 colon) | TGI (HT29 colon) | TGI (COLO 205 colon)
> 100000 nM: TGI (SF-539 CNS)
